Like-named read-outs stand apart in the source and are kept apart here.
Tests used:
[1] = system: Clostridium difficile toxin A and B; assay: Single patient cases of Examples 6 and 7, indicator-guided switch to intermittent fidaxomicin; assay type: in vivo, human
Procedure: (§1) A patient being tested positively for Clostridium difficile toxin A and B (using a suitable assay known in the art) and having >5 UBM per day is treated with 200 mg Fidaxomicin twice a day in an initial course of treatment. The number of UBM is monitored daily to establish if the number of UBM will change positively to ≤3 UBM per day. At day 2 of the initial course of treatment the UBM is reduced to 2 UBM per day and at day 3 to 1 UBM per day. Since the UBM is below 4 UBM per day and even below 3 UBM per day for 2 consecutive days, the dosage regimen is switched to the intermittent course of treatment by administering to the patient 200 mg Fidaxomicin every other day starting from day 5 until Clostridium difficile toxin A and B are tested negative. The presence of Clostridium difficile toxin A and B is tested negative at day 12 after start of treatment (using a suitable assay known in the art).
as §1, with “day 9 and 10” for “day 2”, “to” for “to 2 UBM per day and at day”, “3” for “3 to 1”, “4” for “4 UBM per day and even below 3”, “day 12” for “day 5”, “day 27” for “day 12”

[2] = system: Clostridium difficile infection; conditions: Cornely 2012; 200 mg Fidaxomicin twice daily or vancomycin 125 mg four times daily orally for 10 days; cited from earlier work
[3] = system: Clostridium difficile infections (CDI); conditions: cited from earlier work
[4] = in vitro BCS study; low solubility, low permeability; cited from earlier work
[5] = system: Clostridium difficile infection; assay: Phase IIIb/IV randomized open-label EXTEND study (2819-MA-1002): extended fidaxomicin vs standard vancomycin; assay type: in vivo, human
Procedure: Fidaxomicin (FDX) is believed to reduce recurrence primarily through minimal collateral damage to colonic microflora. […] Subjects will receive 200 mg twice daily (b.i.d.) for 5 days from Day 1 to Day 5. From Day 6 to Day 25, subjects will receive 200 mg once daily on alternate days (first alternate day dose given on Day 7). This extension of the dose will allow a longer period for the protective microflora to recover and extend the period of time over which Clostridium difficile cells are suppressed, and kill any dormant spores that germinate. The extension of the dose also targets the early recurrence period documented in the phase 3 studies—the first 15 days after the end of therapy during which the majority of recurrences occurred. By covering this period this revised dosing regimen may reduce the recurrence to <10%, preferably to <5% and even more preferred to <3%. The impact on the gut microflora was limited supporting the rationale for this study.
The dosing of vancomycin (Vancocin™) to be administered in this study is in line with the SmPC for Vancocin. Subjects will receive 125 mg four times daily (q.i.d.) for 10 days from Day 1 to Day 10.
The dosage regimen was as described in Table 1 of Example 1.

[6] = FID-CH: 10-day fidaxomicin chaser after repeat CDI treatment, 8 courses, excluding RCDI due to antimicrobial exposure
[7] = FID-TX: 200 mg BID for 10 days, of 3 courses
[8] = Day 55, extended fidaxomicin or standard vancomycin
[9] = Table 7, extended fidaxomicin regimen of Example 1 or standard vancomycin
[10] = extended fidaxomicin Day 55, standard vancomycin Day 40

CCc1c(Cl)c(O)c(Cl)c(O)c1C(=O)O[C@H]1[C@H](O)[C@H](OC)[C@H](OC/C2=C\C=C\C[C@H](O)/C(C)=C/[C@H](CC)[C@@H](O[C@@H]3OC(C)(C)[C@@H](OC(=O)C(C)C)[C@H](O)[C@@H]3O)/C(C)=C/C(C)=C/C[C@@H]([C@@H](C)O)OC2=O)O[C@@H]1C [fidaxomicin, 3-[[[6-deoxy-4-O-(3,5-dichloro-2-ethyl-4,6-dihydroxybenzoyl)-2-O-methyl-β-D-mannopyranosyl]oxy]methyl]-12(R)-[[6-deoxy-5-C-methyl-4-O-(2-methyl-1-oxopropyl)-β-D-lyxo-hexopyranosyl]oxy]-11 (S)-ethyl-8(S)-hydroxy-18(S)-(1(R)-hydroxyethyl)-9,13,15-trimethyloxacyclooctadeca-3,5,9,13,15-pentaene-2-one]
UBM per day ([1]; Example 6 patient, day 2 of initial course 200 mg twice a day, >5 UBM per day before): 2 UBM per day
UBM per day ([1]; Example 6 patient, day 3 of initial course 200 mg twice a day): 1 UBM per day
Presence of Clostridium difficile toxin A and B ([1]; Example 6 patient, day 12 after start of treatment, 200 mg every other day from day 5): negative
UBM per day ([1]; Example 7 patient, day 9 and 10 of initial course 200 mg twice a day, >5 UBM per day before): 3 UBM per day
Presence of Clostridium difficile toxin A and B ([1]; Example 7 patient, day 27 after start of treatment, 200 mg every other day from day 12): negative
Recurrence 30 days after end of treatment (%) [2]: 12.7%
Recurrence 30 days after end of treatment (patients/N) [2]: 28/221
Sustained clinical cure 30 days after end of treatment (%) [2]: 76.6%
Sustained clinical cure 30 days after end of treatment (patients/N) [2]: 193/252
Courses resulting in treatment success ([3]; 18 courses of fidaxomicin in 14 patients with RCDI): 18
RCDI [3, 6]: 2
RCDI (%) [3, 6]: 25%
RCDI ([3]; FID-TP: taper 200 mg daily 7 days then 200 mg QOD 7-26 days, 7 courses): no RCDI
RCDI episodes [3, 7]: 2
RCDI episodes (%) [3, 7]: 66%
Average symptom-free interval (SFI) ([3]; following FID-CH): 240 days
Average symptom-free interval (SFI) ([3]; following FID-TP): 150 days
Average symptom-free interval (SFI) ([3]; following FID-TX): 73 days
BCS class [4]: Class IV
Treatment Difference in sustained clinical cure rate (Extended Fidaxomicin − Standard Vancomycin) ([5]; 30 days after end of treatment): 23.8%
OR (Odds Ratio) vs. Vancomycin, sustained clinical cure ([5]; 30 days after end of treatment, extended fidaxomicin): 3.36
% of patients with <3 Unformed bowel movements per day (UBM) ([5]; Day 1): 23%
% of patients with ≥3 Unformed bowel movements per day (UBM) ([5]; Day 1): 77.0%
% of patients with <3 Unformed bowel movements per day (UBM) ([5]; Day 2): 33.8%
% of patients with ≥3 Unformed bowel movements per day (UBM) ([5]; Day 2): 66.2%
% of patients with <3 Unformed bowel movements per day (UBM) ([5]; Day 3): 59%
% of patients with ≥3 Unformed bowel movements per day (UBM) ([5]; Day 3): 41%
% of patients with <3 Unformed bowel movements per day (UBM) ([5]; Day 4): 66.9%
% of patients with ≥3 Unformed bowel movements per day (UBM) ([5]; Day 4): 33.1%
% of patients with <3 Unformed bowel movements per day (UBM) ([5]; Day 5): 73.9%
% of patients with ≥3 Unformed bowel movements per day (UBM) ([5]; Day 5): 26.1%
% of patients with <3 Unformed bowel movements per day (UBM) ([5]; Day 6): 73.9%
% of patients with ≥3 Unformed bowel movements per day (UBM) ([5]; Day 6): 26.1%
% of patients with <3 Unformed bowel movements per day (UBM) ([5]; Day 7): 84.8%
% of patients with ≥3 Unformed bowel movements per day (UBM) ([5]; Day 7): 15.2%
% of patients with <3 Unformed bowel movements per day (UBM) ([5]; Day 8): 89.1%
% of patients with ≥3 Unformed bowel movements per day (UBM) ([5]; Day 8): 10.9%
% of patients with <3 Unformed bowel movements per day (UBM) ([5]; Day 9): 91.3%
% of patients with ≥3 Unformed bowel movements per day (UBM) ([5]; Day 9): 8.7%
% of patients with <3 Unformed bowel movements per day (UBM) ([5]; Day 10): 92.6%
% of patients with ≥3 Unformed bowel movements per day (UBM) ([5]; Day 10): 7.4%
% of patients with <3 Unformed bowel movements per day (UBM) ([5]; Day 11): 93.3%
% of patients with ≥3 Unformed bowel movements per day (UBM) ([5]; Day 11): 6.7%
% of patients with <3 Unformed bowel movements per day (UBM) ([5]; Day 12): 94.8%
% of patients with ≥3 Unformed bowel movements per day (UBM) ([5]; Day 12): 5.2%
% of patients with <3 Unformed bowel movements per day (UBM) ([5]; Day 13): 93.3%
% of patients with ≥3 Unformed bowel movements per day (UBM) ([5]; Day 13): 6.7%
% of patients with <3 Unformed bowel movements per day (UBM) ([5]; Day 14): 95.6%
% of patients with ≥3 Unformed bowel movements per day (UBM) ([5]; Day 14): 4.4%
% of patients with <3 Unformed bowel movements per day (UBM) ([5]; Day 15): 94.8%
% of patients with ≥3 Unformed bowel movements per day (UBM) ([5]; Day 15): 5.2%
% of patients with <3 Unformed bowel movements per day (UBM) ([5]; Day 16): 95.5%
% of patients with ≥3 Unformed bowel movements per day (UBM) ([5]; Day 16): 4.5%
% of patients with <3 Unformed bowel movements per day (UBM) ([5]; Day 17): 95.5%
% of patients with ≥3 Unformed bowel movements per day (UBM) ([5]; Day 17): 4.5%
% of patients with <3 Unformed bowel movements per day (UBM) ([5]; Day 18): 94.0%
% of patients with ≥3 Unformed bowel movements per day (UBM) ([5]; Day 18): 6.0%
% of patients with <3 Unformed bowel movements per day (UBM) ([5]; Day 19): 95.5%
% of patients with ≥3 Unformed bowel movements per day (UBM) ([5]; Day 19): 4.5%
% of patients with <3 Unformed bowel movements per day (UBM) ([5]; Day 20): 97.8%
% of patients with ≥3 Unformed bowel movements per day (UBM) ([5]; Day 20): 2.2%
% of patients with <3 Unformed bowel movements per day (UBM) ([5]; Day 21): 95.5%
% of patients with ≥3 Unformed bowel movements per day (UBM) ([5]; Day 21): 4.5%
% of patients with <3 Unformed bowel movements per day (UBM) ([5]; Day 22): 96.3%
% of patients with ≥3 Unformed bowel movements per day (UBM) ([5]; Day 22): 3.7%
% of patients with <3 Unformed bowel movements per day (UBM) ([5]; Day 23): 95.5%
% of patients with ≥3 Unformed bowel movements per day (UBM) ([5]; Day 23): 4.5%
% of patients with <3 Unformed bowel movements per day (UBM) ([5]; Day 24): 96.2%
% of patients with ≥3 Unformed bowel movements per day (UBM) ([5]; Day 24): 3.8%
% of patients with <3 Unformed bowel movements per day (UBM) ([5]; Day 25): 96.2%
% of patients with ≥3 Unformed bowel movements per day (UBM) ([5]; Day 25): 3.8%
% of patients with <3 Unformed bowel movements per day (UBM) ([5]; Day 26): 97.3%
% of patients with ≥3 Unformed bowel movements per day (UBM) ([5]; Day 26): 2.7%
% of patients with <3 Unformed bowel movements per day (UBM) ([5]; Day 27): 98.5%
% of patients with ≥3 Unformed bowel movements per day (UBM) ([5]; Day 27): 1.5%
Treatment Difference in recurrence rate (Extended fidaxomicin − Standard vancomycin) ([5]; Day 55): −12.6%
OR (Odds Ratio) vs. Vancomycin, recurrence of CDI ([5]; Day 55, extended fidaxomicin): 0.21
Recurrence of CDI (%) at visit 5 (Day 55) [5, 8]: (3.5) %
Recurrence of CDI at visit 5 (Day 55) (patients/N) [5, 8]: 5/142
Recurrence of CDI (%) at visit 5 (Day 55) ([5]; Day 55, extended fidaxomicin or standard vancomycin, listed as FDX): 3.5%
Recurrence 30 days after end of treatment (%) [5, 9]: 3.5%
Recurrence 30 days after end of treatment (patients/N) [5, 9]: 5/142
Sustained clinical cure (%) at 30 days after end of treatment [5, 10]: (86.7) %
Sustained clinical cure at 30 days after end of treatment (patients/N) [5, 10]: 124/143
Sustained clinical cure (%) at 30 days after end of treatment ([5]; extended fidaxomicin Day 55, standard vancomycin Day 40, listed as FDX): 86.7%

— patent US10548912B2, “Dosage regimen for a tiacumicin compound” (Astellas Pharma Europe Ltd., priority 2015, dated 2020)
